Assay results reported in patent US20090215693A1, “METHODS FOR INCREASING HYALURONIC ACID LEVELS AND IMPROVING MOISTURE RETENTION IN TISSUE” (priority 2008, published 2009).

Test system: Fibroblasts
Assay: Hyaluronic acid production by cultured fibroblasts (ELISA of culture medium)
Assay type: cell-based
Details: fibroblasts, 48 hours incubation, culture medium
Procedure: Fibroblasts were seeded into individual wells of a 12-well plate in 1.0 ml of Fibroblast Growth Media (FGM) and incubated overnight at 37±2° C. and 5±1% CO2. On the following day the media was removed via aspiration to eliminate non-adherent cells and replaced with 1.0 ml of fresh FGM. Cells were grown until confluent, with a media change every 48 to 72 hours. Upon reaching confluency the cells were treated for 24 hours with DMEM supplemented with 1.5% FBS to eliminate growth factors from the normal culture media. After this 24-hour wash-out period the cells were treated with the indicated test materials (i.e., milk-derived products containing lactoferrin) at the specified concentrations dissolved in FGM with 1.5% FBS. Dibutyrl cAMP (DBcAMP) at 0.1 mM was used as a positive control. Untreated cells (negative control) received FGM with 1.5% FBS. The cells were incubated for 48 hours and at the end of the incubation period cell culture medium was collected and either stored frozen (−75° C.) or assayed immediately. All testing was done in triplicate.
A series of hyaluronic acid standards from 50 ng/ml to 3,200 ng/ml was prepared. […] After incubation, 50 μl of stop solution was added to each well and the absorbance was measured at 405 nm using a plate reader. Hyaluronic acid production was expressed as ng/ml and results are shown in Table 1 and the graph of FIG. 1.

Row | SMILES | HA Measured (amount applied 4 mM) | HA Measured (amount applied 0.1 mM (positive control))
1 | CCCC(=O)[O-].[Na+] [Sodium Butyrate] | 139 ± 6 ng/mL | 
2 | CCCC(=O)Nc1ncnc2c1ncn2[C@@H]1O[C@@H]2COP(=O)(O)O[C@H]2[C@H]1OC(=O)CCC [DBcAMP, dibutyryl cyclic AMP] |  | 416 ± 24 ng/mL
